Experimental data reported in article PMC7347136 (PLoS ONE, 2020).

Experiments:
Assay in all cases: Carna kinase panel screen
Type in all cases: biochemical
Settings in all cases: read-out: % Inhibition ± SD
MER = molecular target: T1, MER (Homo sapiens, UniProt Q12866)
T1 construct: purchased Carna Biosciences
Outline: (§1)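 10-pt curves; [ATP] ~Km; IC50 by 4PL fit of % inhibition.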

MAP3K5 = molecular target: T2, MAP3K5 (Homo sapiens, UniProt Q99683)
T2 construct: purchased Carna Biosciences
Outline: as §1

KIT[T670I] = molecular target: T3, KIT[T670I] (Homo sapiens, UniProt P10721, T670I)
T3 construct: purchased Carna Biosciences
Outline: as §1

RSK2 = molecular target: T4, RSK2 (Homo sapiens, UniProt P51812)
T4 construct: purchased Carna Biosciences
Outline: as §1

AMPKa1 = molecular target: T5, AMPKa1 (Homo sapiens, UniProt Q13131)
T5 construct: purchased Carna Biosciences
Outline: as §1

TRKA = molecular target: T6, TRKA (Homo sapiens, UniProt P04629)
T6 construct: purchased Carna Biosciences
Outline: as §1

PDGFRa = molecular target: T7, PDGFRa (Homo sapiens, UniProt P16234)
T7 construct: purchased Carna Biosciences
Outline: as §1

PLK2 = molecular target: T8, PLK2 (Homo sapiens, UniProt Q9NYY3)
T8 construct: purchased Carna Biosciences
Outline: as §1

PASK = molecular target: T9, PASK (Homo sapiens, UniProt Q96RG2)
T9 construct: purchased Carna Biosciences
Outline: as §1

PAK2 = molecular target: T10, PAK2 (Homo sapiens, UniProt Q13177)
T10 construct: purchased Carna Biosciences
Outline: as §1

CK2a1 = molecular target: T11, CK2a1 (Homo sapiens, UniProt P68400)
T11 construct: purchased Carna Biosciences
Outline: as §1

MAP3K2 = molecular target: T12, MAP3K2 (Homo sapiens, UniProt Q9Y2U5)
T12 construct: purchased Carna Biosciences
Outline: as §1

MAP3K1 = molecular target: T13, MAP3K1 (Homo sapiens, UniProt Q13233)
T13 construct: purchased Carna Biosciences
Outline: as §1

CK1e = molecular target: T14, CK1e (Homo sapiens, UniProt P49674)
T14 construct: purchased Carna Biosciences
Outline: as §1

IKKa = molecular target: T15, IKKa (Homo sapiens, UniProt O15111)
T15 construct: purchased Carna Biosciences
Outline: as §1

CaMK2a = molecular target: T16, CaMK2a (Homo sapiens, UniProt Q9UQM7)
T16 construct: purchased Carna Biosciences
Outline: (§2)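 Values are IC50s, derived by four-parameter logistic regression of percentage inhibition against concentration. Each curve used 10 concentrations and ATP close to Km.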

MRCKa = molecular target: T17, MRCKa (Homo sapiens, UniProt Q5VT25)
T17 construct: purchased Carna Biosciences
Outline: as §1

MARK4 = molecular target: T18, MARK4 (Homo sapiens, UniProt Q96L34)
T18 construct: purchased Carna Biosciences
Outline: as §1

SRM = molecular target: T19, SRM (Homo sapiens, UniProt Q9H3Y6)
T19 construct: purchased Carna Biosciences
Outline: as §1

KIT[V560G] = molecular target: T20, KIT[V560G] (Homo sapiens, UniProt P10721, V560G)
T20 construct: purchased Carna Biosciences
Outline: as §2

Erk2 = molecular target: T21, Erk2 (Homo sapiens, UniProt P28482)
T21 construct: purchased Carna Biosciences
Outline: as §1

DDR1 = molecular target: T22, DDR1 (Homo sapiens, UniProt Q08345)
T22 construct: purchased Carna Biosciences
Outline: as §2

MAP2K2 = molecular target: T23, MAP2K2 (Homo sapiens, UniProt P36507)
T23 construct: purchased Carna Biosciences
Outline: as §1

EGFR = molecular target: T24, EGFR (Homo sapiens, UniProt P00533)
T24 construct: purchased Carna Biosciences
Outline: as §2

MSK1 = molecular target: T25, MSK1 (Homo sapiens, UniProt O75582)
T25 construct: purchased Carna Biosciences
Outline: as §1

CDK9 = molecular target: T26, CDK9 (Homo sapiens, UniProt P50750)
T26 construct: purchased Carna Biosciences
Outline: as §1

PKD2 = molecular target: T27, PKD2 (Homo sapiens, UniProt Q9BZL6)
T27 construct: purchased Carna Biosciences
Outline: as §1

PKCg = molecular target: T28, PKCg (Homo sapiens, UniProt P05129)
T28 construct: purchased Carna Biosciences
Outline: as §1

AurB = molecular target: T29, AurB (Homo sapiens, UniProt Q96GD4)
T29 construct: purchased Carna Biosciences
Outline: as §1

MLK3 = molecular target: T30, MLK3 (Homo sapiens, UniProt Q16584)
T30 construct: purchased Carna Biosciences
Outline: as §1

PLK3 = molecular target: T31, PLK3 (Homo sapiens, UniProt Q9H4B4)
T31 construct: purchased Carna Biosciences
Outline: as §1

RAF1 = molecular target: T32, RAF1 (Homo sapiens, UniProt P04049)
T32 construct: purchased Carna Biosciences
Outline: as §1

PAK6 = molecular target: T33, PAK6 (Homo sapiens, UniProt Q9NQU5)
T33 construct: purchased Carna Biosciences
Outline: as §1

FGFR3 = molecular target: T34, FGFR3 (Homo sapiens, UniProt P22607)
T34 construct: purchased Carna Biosciences
Outline: as §1

FGFR1 = molecular target: T35, FGFR1 (Homo sapiens, UniProt P11362)
T35 construct: purchased Carna Biosciences
Outline: as §1

PYK2 = molecular target: T36, PYK2 (Homo sapiens, UniProt Q14289)
T36 construct: purchased Carna Biosciences
Outline: as §1

CaMK4 = molecular target: T37, CaMK4 (Homo sapiens, UniProt Q16566)
T37 construct: purchased Carna Biosciences
Outline: as §1

TAK1 = molecular target: T38, TAK1 (Homo sapiens, UniProt O43318)
T38 construct: purchased Carna Biosciences
Outline: as §1

MLK2 = molecular target: T39, MLK2 (Homo sapiens, UniProt Q02779)
T39 construct: purchased Carna Biosciences
Outline: as §1

TTK = molecular target: T40, TTK (Homo sapiens, UniProt P33981)
T40 construct: purchased Carna Biosciences
Outline: as §1

BRAF = molecular target: T41, BRAF (Homo sapiens, UniProt P15056)
T41 construct: purchased Carna Biosciences
Outline: as §1

JAK2 = molecular target: T42, JAK2 (Homo sapiens, UniProt O60674)
T42 construct: purchased Carna Biosciences
Outline: as §1

PIM2 = molecular target: T43, PIM2 (Homo sapiens, UniProt Q9P1W9)
T43 construct: purchased Carna Biosciences
Outline: as §1

T25 sequence (O75582 whole entry): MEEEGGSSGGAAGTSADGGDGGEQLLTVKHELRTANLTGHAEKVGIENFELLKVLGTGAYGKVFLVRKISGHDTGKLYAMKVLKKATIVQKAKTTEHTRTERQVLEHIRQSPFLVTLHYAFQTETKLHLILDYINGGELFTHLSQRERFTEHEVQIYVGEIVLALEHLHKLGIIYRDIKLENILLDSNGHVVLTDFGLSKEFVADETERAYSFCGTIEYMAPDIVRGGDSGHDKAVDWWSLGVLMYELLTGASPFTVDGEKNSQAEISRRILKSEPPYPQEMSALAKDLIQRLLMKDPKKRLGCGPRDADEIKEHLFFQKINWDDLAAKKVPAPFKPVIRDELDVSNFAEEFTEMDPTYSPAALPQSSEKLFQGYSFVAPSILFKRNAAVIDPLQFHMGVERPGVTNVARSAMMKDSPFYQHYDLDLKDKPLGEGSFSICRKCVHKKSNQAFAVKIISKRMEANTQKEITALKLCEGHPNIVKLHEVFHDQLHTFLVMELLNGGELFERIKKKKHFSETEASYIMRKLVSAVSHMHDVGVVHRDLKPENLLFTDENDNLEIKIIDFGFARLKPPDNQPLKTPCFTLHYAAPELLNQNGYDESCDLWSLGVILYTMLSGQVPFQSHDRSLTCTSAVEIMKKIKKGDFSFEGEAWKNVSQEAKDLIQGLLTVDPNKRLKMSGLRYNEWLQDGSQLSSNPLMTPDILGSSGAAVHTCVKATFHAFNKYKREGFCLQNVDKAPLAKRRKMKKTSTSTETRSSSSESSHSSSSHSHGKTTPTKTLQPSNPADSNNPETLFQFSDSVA
T19 sequence (Q9H3Y6 whole entry): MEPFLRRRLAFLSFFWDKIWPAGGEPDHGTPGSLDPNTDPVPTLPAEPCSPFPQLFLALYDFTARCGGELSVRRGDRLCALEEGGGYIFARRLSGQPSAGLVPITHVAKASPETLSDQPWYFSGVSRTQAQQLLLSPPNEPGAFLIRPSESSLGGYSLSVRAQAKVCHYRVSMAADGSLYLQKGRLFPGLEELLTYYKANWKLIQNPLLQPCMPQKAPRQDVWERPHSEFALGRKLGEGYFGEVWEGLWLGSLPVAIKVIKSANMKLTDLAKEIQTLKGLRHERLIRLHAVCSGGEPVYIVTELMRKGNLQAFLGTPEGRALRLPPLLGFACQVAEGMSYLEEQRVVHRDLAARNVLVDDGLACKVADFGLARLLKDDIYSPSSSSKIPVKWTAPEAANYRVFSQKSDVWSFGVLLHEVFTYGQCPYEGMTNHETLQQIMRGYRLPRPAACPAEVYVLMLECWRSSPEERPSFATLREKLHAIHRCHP
T40 sequence (P33981 whole entry): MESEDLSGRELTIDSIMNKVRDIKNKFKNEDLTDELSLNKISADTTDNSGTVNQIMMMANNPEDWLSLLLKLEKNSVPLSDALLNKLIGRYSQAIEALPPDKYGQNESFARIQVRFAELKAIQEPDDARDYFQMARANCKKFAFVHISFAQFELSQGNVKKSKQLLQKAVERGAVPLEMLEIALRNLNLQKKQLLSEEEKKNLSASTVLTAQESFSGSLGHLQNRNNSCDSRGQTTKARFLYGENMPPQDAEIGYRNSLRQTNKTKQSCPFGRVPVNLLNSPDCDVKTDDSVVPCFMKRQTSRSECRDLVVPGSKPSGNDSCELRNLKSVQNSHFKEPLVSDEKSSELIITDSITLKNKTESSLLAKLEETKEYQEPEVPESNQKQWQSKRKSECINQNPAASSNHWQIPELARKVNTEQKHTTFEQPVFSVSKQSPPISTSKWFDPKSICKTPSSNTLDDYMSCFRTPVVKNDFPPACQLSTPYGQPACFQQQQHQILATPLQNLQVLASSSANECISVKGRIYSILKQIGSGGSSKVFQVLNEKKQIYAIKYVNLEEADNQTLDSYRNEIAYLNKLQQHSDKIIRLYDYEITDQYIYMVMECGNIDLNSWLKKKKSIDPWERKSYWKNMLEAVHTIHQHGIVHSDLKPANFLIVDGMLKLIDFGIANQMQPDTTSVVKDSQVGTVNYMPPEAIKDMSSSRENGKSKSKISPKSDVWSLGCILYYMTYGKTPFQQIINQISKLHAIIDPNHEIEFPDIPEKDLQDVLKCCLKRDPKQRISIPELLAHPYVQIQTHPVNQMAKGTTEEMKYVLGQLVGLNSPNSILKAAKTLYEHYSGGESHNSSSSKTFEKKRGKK
T42 sequence (O60674 whole entry): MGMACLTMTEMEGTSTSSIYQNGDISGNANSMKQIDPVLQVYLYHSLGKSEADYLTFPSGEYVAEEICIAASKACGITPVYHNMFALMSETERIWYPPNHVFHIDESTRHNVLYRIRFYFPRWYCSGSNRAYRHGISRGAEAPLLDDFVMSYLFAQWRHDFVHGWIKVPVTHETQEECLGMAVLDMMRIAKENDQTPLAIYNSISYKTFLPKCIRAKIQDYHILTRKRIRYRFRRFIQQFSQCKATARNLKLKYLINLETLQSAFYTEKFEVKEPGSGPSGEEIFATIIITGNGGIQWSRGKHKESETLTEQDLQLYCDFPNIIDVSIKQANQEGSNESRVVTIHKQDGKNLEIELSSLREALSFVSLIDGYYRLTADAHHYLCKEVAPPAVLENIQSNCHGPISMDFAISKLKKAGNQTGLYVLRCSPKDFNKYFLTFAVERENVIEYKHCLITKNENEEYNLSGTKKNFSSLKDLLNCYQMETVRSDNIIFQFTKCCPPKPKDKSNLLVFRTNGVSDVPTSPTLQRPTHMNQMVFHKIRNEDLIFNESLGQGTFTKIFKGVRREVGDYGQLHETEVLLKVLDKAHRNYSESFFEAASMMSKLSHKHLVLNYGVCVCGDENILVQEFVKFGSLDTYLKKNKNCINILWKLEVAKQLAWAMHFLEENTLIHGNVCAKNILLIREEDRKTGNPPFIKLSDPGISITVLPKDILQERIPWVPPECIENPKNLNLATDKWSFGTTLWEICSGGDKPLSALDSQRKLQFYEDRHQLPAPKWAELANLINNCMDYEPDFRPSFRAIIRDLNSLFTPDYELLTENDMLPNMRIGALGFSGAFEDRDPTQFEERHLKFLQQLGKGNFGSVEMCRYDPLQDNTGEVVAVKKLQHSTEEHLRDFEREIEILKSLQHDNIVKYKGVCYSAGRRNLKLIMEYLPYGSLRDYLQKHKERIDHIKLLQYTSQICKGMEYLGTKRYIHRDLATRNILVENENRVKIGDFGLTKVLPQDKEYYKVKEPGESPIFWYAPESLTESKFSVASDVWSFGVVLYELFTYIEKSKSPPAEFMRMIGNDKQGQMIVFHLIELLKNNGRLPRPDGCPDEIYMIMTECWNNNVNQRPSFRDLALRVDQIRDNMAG
T20 sequence (P10721 26-976 V560G): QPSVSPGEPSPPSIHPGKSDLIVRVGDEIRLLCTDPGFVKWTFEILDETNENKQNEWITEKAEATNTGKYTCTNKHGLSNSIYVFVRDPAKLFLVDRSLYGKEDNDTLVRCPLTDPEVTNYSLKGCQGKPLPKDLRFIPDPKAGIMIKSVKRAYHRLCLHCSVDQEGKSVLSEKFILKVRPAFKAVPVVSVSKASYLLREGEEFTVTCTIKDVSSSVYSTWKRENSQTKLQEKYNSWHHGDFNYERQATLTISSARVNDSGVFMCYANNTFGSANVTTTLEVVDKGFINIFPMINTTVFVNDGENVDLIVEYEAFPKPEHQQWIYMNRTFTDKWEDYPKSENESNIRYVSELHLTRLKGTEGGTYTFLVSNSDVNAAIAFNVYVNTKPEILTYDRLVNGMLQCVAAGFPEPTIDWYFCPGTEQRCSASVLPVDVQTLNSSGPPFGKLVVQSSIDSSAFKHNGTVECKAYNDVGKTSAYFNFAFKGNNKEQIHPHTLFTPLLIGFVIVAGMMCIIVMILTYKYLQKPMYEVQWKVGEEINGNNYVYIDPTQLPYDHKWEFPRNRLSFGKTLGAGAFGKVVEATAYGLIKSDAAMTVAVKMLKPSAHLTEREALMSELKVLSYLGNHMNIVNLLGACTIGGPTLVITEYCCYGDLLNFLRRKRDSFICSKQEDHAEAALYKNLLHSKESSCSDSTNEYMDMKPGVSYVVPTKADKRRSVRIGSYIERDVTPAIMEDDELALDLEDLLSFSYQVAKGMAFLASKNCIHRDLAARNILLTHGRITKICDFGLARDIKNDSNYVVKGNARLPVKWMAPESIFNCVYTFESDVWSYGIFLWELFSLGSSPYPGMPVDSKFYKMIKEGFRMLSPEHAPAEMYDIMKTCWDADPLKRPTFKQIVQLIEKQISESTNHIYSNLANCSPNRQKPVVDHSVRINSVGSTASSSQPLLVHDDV
T29 sequence (Q96GD4 whole entry): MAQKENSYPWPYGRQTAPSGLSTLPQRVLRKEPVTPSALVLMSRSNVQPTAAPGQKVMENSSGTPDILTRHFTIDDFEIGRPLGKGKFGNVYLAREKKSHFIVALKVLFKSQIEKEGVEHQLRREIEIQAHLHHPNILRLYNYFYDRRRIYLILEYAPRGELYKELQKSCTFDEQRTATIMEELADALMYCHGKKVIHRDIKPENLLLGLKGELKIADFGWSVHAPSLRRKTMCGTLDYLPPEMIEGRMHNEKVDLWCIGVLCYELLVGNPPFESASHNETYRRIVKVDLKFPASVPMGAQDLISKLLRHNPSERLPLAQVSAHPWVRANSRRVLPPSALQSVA
T21 sequence (P28482 whole entry): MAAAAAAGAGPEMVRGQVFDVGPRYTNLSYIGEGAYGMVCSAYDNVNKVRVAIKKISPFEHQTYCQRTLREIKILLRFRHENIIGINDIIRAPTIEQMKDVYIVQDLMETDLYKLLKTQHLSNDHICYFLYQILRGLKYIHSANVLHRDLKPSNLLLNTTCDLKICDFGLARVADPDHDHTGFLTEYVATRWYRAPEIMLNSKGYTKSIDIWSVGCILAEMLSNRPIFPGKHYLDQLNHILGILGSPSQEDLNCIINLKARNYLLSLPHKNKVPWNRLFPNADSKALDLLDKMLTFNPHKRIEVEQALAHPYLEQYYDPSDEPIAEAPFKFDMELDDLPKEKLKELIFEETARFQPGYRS
T3 sequence (P10721 26-976 T670I): as the sequence (P10721 26-976 V560G) above, with G535V, T645I counted along it

CC[C@H](Nc1nc(NCc2cnc(C)cc2C)c2ncn(C(C)C)c2n1)[C@@H](C)O [Fadraciclib, 2-pentanol, 3-[[6-[[(4,6-dimethyl-3-pyridinyl)methyl]amino]-9-(1-methylethyl)-9Hpurin-2-yl]amino]-, (2R,3S)]
inhibition at 1 µM (MER): -9.1 ± 0.1% | inhibition at 1 µM (MAP3K5): 5.2 ± 0.2% | inhibition at 1 µM (KIT[T670I]): -9.2 ± 0.2% | inhibition at 1 µM (RSK2): 5.6 ± 0.1% | inhibition at 1 µM (AMPKa1): -3.8% | inhibition at 1 µM (TRKA): -10.3 ± 0.3% | inhibition at 1 µM (PDGFRa): 5.8 ± 0.2% | inhibition at 1 µM (PLK2): 1% | inhibition at 1 µM (PASK): -0.4% | inhibition at 1 µM (PAK2): -2.9% | inhibition at 1 µM (CK2a1): -22.8 ± 0.7% | inhibition at 1 µM (MAP3K2): -14.7 ± 0.8% | inhibition at 1 µM (MAP3K1): -6.6 ± 0.1% | inhibition at 1 µM (CK1e): 19.8 ± 0.5% | inhibition at 1 µM (IKKa): 0% | inhibition at 1 µM (CaMK2a): -3.6 ± 0.1% | inhibition at 1 µM (MRCKa): -14.8 ± 0.1% | inhibition at 1 µM (MARK4): -5.1 ± 0.4% | inhibition at 1 µM (SRM): 3.5 ± 0.1% | inhibition at 1 µM (KIT[V560G]): 2.5 ± 0.1% | inhibition at 1 µM (Erk2): 19.6 ± 0.8% | inhibition at 1 µM (DDR1): -9.3 ± 0.1% | inhibition at 1 µM (MAP2K2): 4.1% | inhibition at 1 µM (EGFR): -10.8 ± 0.4% | inhibition at 1 µM (MSK1): 5.5 ± 0.4% | inhibition at 1 µM (CDK9): 96.6 ± 3.2% | inhibition at 1 µM (PKD2): -13.4 ± 0.6% | inhibition at 1 µM (PKCg): 17.2% | inhibition at 1 µM (AurB): 4.2 ± 0.2% | inhibition at 1 µM (MLK3): -4.9 ± 0.4% | inhibition at 1 µM (PLK3): 5.7 ± 0.3% | inhibition at 1 µM (RAF1): -1.1 ± 0.1% | inhibition at 1 µM (PAK6): -5.4% | inhibition at 1 µM (FGFR3): -5.6 ± 0.2% | inhibition at 1 µM (FGFR1): 7.8% | inhibition at 1 µM (PYK2): 11.7 ± 0.2% | inhibition at 1 µM (CaMK4): -4.8 ± 0.1% | inhibition at 1 µM (TAK1): 0.3% | inhibition at 1 µM (MLK2): 0.6% | inhibition at 1 µM (TTK): 25.3 ± 4.5% | inhibition at 1 µM (BRAF): -8.4 ± 1% | inhibition at 1 µM (JAK2): 6.1 ± 0.2% | inhibition at 1 µM (PIM2): 2.9 ± 0.2%
